Source: US6479514B1, “Quinoline-aminomethyl-pyridyl derivatives with anti-helicobacter activity” (Altana Pharma AG, priority 1998, dated 2002)

How the values were obtained:
Helicobacter pylori = assay: Activity against Helicobacter pylori, agar dilution (method of Iwahi et al.), Columbia agar, 4 days growth; format: cell-based; conditions: Columbia agar (Oxoid), growth period of 4 days, approximate values; for MIC50: 96 h, read-out: Appr. MIC 50
Source text: The compounds of the formula I were investigated with respect to their activity against Helicobacter pylori following the method described by Tomoyuki Iwahi et al. (Antimicrobial Agents and Chemotherapy, 1991, 490-496) using Columbia agar (Oxoid) and a growth period of 4 days.

| Structure (SMILES) | MIC50 (Helicobacter pylori) | melting point | Appr. MIC 50 (Helicobacter pylori) |
| --- | --- | --- | --- |
| Cc1c(SCCCSCc2ccncc2)ccnc1CNc1cnc2ccccc2c1 [Compound 12, {3-Methyl-4-[3-(pyridin-4-ylmethylsulfanyl)propylsulfanyl]pyridin-2-ylmethyl}quinolin-3-ylamine] | ≤ 0.1 µg/mL | – | – |
| Cc1c(OCCOCCSCc2ccccn2)ccnc1CNc1cnc2ccccc2c1 [Compound 31, (3-Methyl-4-{2-[2-(pyridin-2-ylmethylsulfanyl)-ethoxy]-ethoxy}-pyridin-2-ylmethyl)-quinolin-3-yl-amine] | ≤ 0.1 µg/mL | 65 to 67 °C | – |
| Cc1c(SCCCSCCn2c([N+](=O)[O-])cnc2C)ccnc1CNc1cnc2ccccc2c1 [Compound 15, (3-Methyl-4-{3-[2-(2-methyl-5-nitroimidazol-1-yl)ethylsulfanyl]propylsulfanyl}-pyridin-2-ylmethyl)quinolin-3-ylamine] | ≤ 0.1 µg/mL | 133 to 135 °C | – |
| Cc1c(SCCCSCC2CN(CC3CC3)C(=O)O2)ccnc1CNc1cnc2ccccc2c1 (stereo not shown) [Compound 19, 3-Cyclopropylmethyl-5-{3-[3-methyl-2-(quinolin-3-ylaminomethyl)-pyridin-4ylsulfanyl]-propylsulfanylmethyl}-oxazolidin-2-one] | ≤ 0.1 µg/mL | 78 to 81 °C | – |
| Cc1c(SCCCCSCCn2c([N+](=O)[O-])cnc2C)ccnc1CNc1cnc2ccccc2c1 [Compound 13, (3-Methyl-4-{4-[2-(2-methyl-5-nitroimidazol-1-yl)ethylsulfanylbutyl]sulfanyl}pyridin-2-yl-methyl)quinolin-3-ylamine] | – | – | ≦0.1 μg/ml |
| Cc1c(OCCSCc2cccnc2)ccnc1CNc1cnc2ccccc2c1 [Compound 33, {3-Methyl-4-[2-(pyridin-3-ylmethylsulfanyl)-ethoxy]-pyridin-2-ylmethyl}-quinolin-3-yl-amine] | ≤ 0.1 µg/mL | – | – |
| Cc1c(SCCCN2CCN(Cc3ccncc3)CC2)ccnc1CNc1cnc2ccccc2c1 [Compound 10, {3-Methyl-4-[3-(4-pyridin-4-ylmethylpiperazin-1-yl)propylsulfanyl]pyridin-2-ylmethyl}-quinolin-3-ylamine] | ≤ 0.1 µg/mL | – | – |
| Cc1c(SCCCSCC2CCCN(C)C2)ccnc1CNc1cnc2ccccc2c1.O=C(O)C(=O)O (stereo not shown) [Compound 11, {3-Methyl-4-[3-(1-methylpiperidin-3-ylmethylsulfanyl)propylsulfanyl]pyridin-2-ylmethyl}-quinolin-3-ylamine oxalate] | ≤ 0.1 µg/mL | – | – |
| Cc1c(OCCCCSc2ncccn2)ccnc1CNc1cnc2ccccc2c1 [Compound 16, {3-Methyl-4-[4-(pyrimidin-2-ylsulfanyl)-butoxy]-pyridin-2-ylmethyl}-quinolin-3-yl-amine] | ≤ 0.1 µg/mL | – | – |
| Cc1c(SCCSCc2cccnc2)ccnc1CNc1cnc2ccccc2c1 [Compound 35, {3-Methyl-4-[2-(pyridin-3-ylmethylsulfanyl)-ethylsulfanyl]-pyridin-2-ylmethyl}-quinolin-3-yl-amine] | ≤ 0.1 µg/mL | – | – |
| Cc1c(SCCCN2CCNCC2)ccnc1CNc1cnc2ccccc2c1 [Compound 4, [3-Methyl-4-(3-piperazin-1-ylpropylsulfanyl)pyridin-2-ylmethyl]quinolin-3-ylamine] | – | 105 to 108 °C | – |
| Cc1c(SCCCSCc2ccccn2)ccnc1CNc1cnc2ccccc2c1 [Compound 29, {3-Methyl-4-[3-(pyridin-2-ylmethylsulfanyl)-propylsulfanyl]-pyridin-2-ylmethyl}-quinolin-3-yl-amine] | ≤ 0.1 µg/mL | – | – |
| Cc1c(SCCCSc2ncccn2)ccnc1CNc1cnc2ccccc2c1 [Compound 2, {3-Methyl4-[3-(pyrimidin-2-ylsulfanyl)propylsulfanyl]pyridin-2-ylmethyl}quinolin-3-ylamine] | ≤ 0.1 µg/mL | – | – |
| Cc1c(OCCSCCn2c([N+](=O)[O-])cnc2C)ccnc1CNc1cnc2ccccc2c1 [Compound 22, (3-Methyl-4-{2-[2-(2-methyl-5-nitro-imidazol-1-yl)-ethylsulfanyl]-ethoxy}-pyridin-2-ylmethyl)-quinolin-3-yl-amine] | ≤ 0.1 µg/mL | 152 to 155 °C | – |
| Cc1c(OCCCCSCCO)ccnc1CNc1cnc2ccccc2c1 [Compound 26, 2-{4-[3-Methyl-2-(quinolin3-ylaminomethyl)-pyridin-4-yloxy]-butylsulfanyl}-ethanol] | ≤ 0.1 µg/mL | 119 to 120 °C | – |
| Cc1c(OCCCCSCc2ccncc2)ccnc1CNc1cnc2ccccc2c1 [Compound 6, {3-Methyl-4-[4-(pyridin4-ylmethylsulfanyl)butoxy]pyridin-2-ylmethyl}quinolin3-ylamine] | ≤ 0.1 µg/mL | – | – |
| Cc1c(SCCCSCC2CN(C(C)C)C(=O)O2)ccnc1CNc1cnc2ccccc2c1 (stereo not shown) [Compound 17, 3-Isopropyl-5-{3-[3-methyl-2-(quinolin-3-ylaminomethyl)-pyridin-4-ylsulfanyl]-propylsulfanylmethyl}-oxazolidin-2-one] | ≤ 0.1 µg/mL | 100 to 104 °C | – |

| Structure (SMILES) | MIC50 (Helicobacter pylori) | melting point | Appr. MIC 50 (Helicobacter pylori) |
| --- | --- | --- | --- |
| Cc1c(SCCSCc2ccncc2)ccnc1CNc1cnc2ccccc2c1 [Compound 8, {3-Methyl-4-[2-(pyridin-4-ylmethylsulfanyl)ethylsulfanyl]pyridin-2-ylmethyl}quinolin-3-ylamine] | ≤ 0.1 µg/mL | – | – |
| Cc1c(OCCCCSCC2CCCN(C)C2)ccnc1CNc1cnc2ccccc2c1 (stereo not shown) [Compound 20, {3-Methyl-4-[4-(1-methyl-piperidin-3-ylmethylsulfanyl)-butoxy]-pyridin-2-ylmethyl}-quinolin-3-yl-amine] | ≤ 0.1 µg/mL | – | – |
| Cc1c(SCCCSCC2CN(C)C(=O)O2)ccnc1CNc1cnc2ccccc2c1 (stereo not shown) [Compound 1, 3-Methyl-5-{3-[3-methyl-2-(quinolin-3-ylaminomethyl)pyridin4-ylsulfanyl]propylsulfanylmethyl}oxazolidin-2-one] | ≤ 0.1 µg/mL | 98 to 100 °C | – |
| Cc1c(OCCCSCCn2c([N+](=O)[O-])cnc2C)ccnc1CNc1cnc2ccccc2c1 [Compound 23, (3-Methyl-4-{3-[2-(2-methyl-5-nitro-imidazol-1-yl)-ethylsulfanyl]-propoxy}-pyridin-2-ylmethyl)-quinolin-3-yl-amine] | ≤ 0.1 µg/mL | 138 to 141 °C | – |
| Cc1c(SCCCN2CCN(CC3CN(Cc4ccncc4)C(=O)O3)CC2)ccnc1CNc1cnc2ccccc2c1 (stereo not shown) [Compound 27, 5-(4-{3-[3-Methyl-2-(quinolin-3-ylaminomethyl)-pyridin-4-ylsulfanyl]-propyl}-piperazin-1-ylmethyl)-3-pyridin-4-ylmethyl-oxazolidin-2-one] | ≤ 0.1 µg/mL | – | – |
| Cc1c(SCCCSCCO)ccnc1CNc1cnc2ccccc2c1 [Compound 25, 2-{3-[3-Methyl-2-(quinolin-3-ylaminomethyl)-pyridin-4-ylsulfanyl]-propylsulfanyl}-ethanol] | ≤ 0.1 µg/mL | 125 to 126 °C | – |
| Cc1c(SCC2CCCN(C)C2)ccnc1CNc1cnc2ccccc2c1 (stereo not shown) [Compound 32, [3-Methyl-4-(1-methyl-piperidin-3-ylmethylsulfanyl)-pyridin-2-ylmethyl]-quinolin-3-yl-amine] | ≤ 0.1 µg/mL | 106 to 108 °C | – |
| Cc1c(SCCCSCc2ccc(Cl)s2)ccnc1CNc1cnc2ccccc2c1 [Compound 14, {4-[3-(5-Chlorothiophen-2-ylmethylsulfanyl)propylsulfanyl]-3-methylpyridin-2-ylmethyl}-quinolin-3-ylamine] | ≤ 0.1 µg/mL | – | – |
| Cc1c(OCCSCc2ccncc2)ccnc1CNc1cnc2ccccc2c1 [Compound 21, {3-Methyl-4-[2-(pyridin-4-ylmethylsulfanyl)-ethoxy]-pyridin-2-ylmethyl}-quinolin-3-yl-amine] | ≤ 0.1 µg/mL | – | – |
| Cc1c(SCCOCC(F)(F)F)ccnc1CNc1cnc2ccccc2c1.Cl [Compound 36, (3-Methyl-4-{2-[2,2,2-trifluoro-ethoxy)-ethylsulfanyl}-pyridin-2-ylmethyl)-quinolin-3-yl-amine hydrochloride] | ≤ 0.1 µg/mL | 212 to 215 °C (dec.) | – |
| Cc1c(SCCCSCCCn2cc([N+](=O)[O-])nc2C)ccnc1CNc1cnc2ccccc2c1 [Compound 18, (3-Methyl-4-{3-[3-(2-methyl-4-nitro-imidazol-1-yl)-propylsulfanyl]-propylsulfanyl}-pyridin-2-ylmethyl)-quinolin-3-yl-amine] | ≤ 0.1 µg/mL | 95 to 99 °C | – |
| Cc1c(OCCCCSCCn2c([N+](=O)[O-])cnc2C)ccnc1CNc1cnc2ccccc2c1 [Compound 7, (3-Methyl-4-{4-[2-(2-methyl-5-nitroimidazol-1-yl)ethylsulfanyl]butoxy}pyridin-2-ylmethyl)-quinolin-3-ylamine] | ≤ 0.1 µg/mL | 154 to 158 °C | – |
| Cc1c(OCCOCCSCc2cccnc2)ccnc1CNc1cnc2ccccc2c1 [Compound 30, (3-Methyl-4-{2-[2-(pyridin-3-ylmethylsulfanyl)-ethoxy]-ethoxy}-pyridin-2-ylmethyl)-quinolin-3-yl-amine] | ≤ 0.1 µg/mL | 84 to 86 °C | – |
| Cc1c(SCCSCCn2c([N+](=O)[O-])cnc2C)ccnc1CNc1cnc2ccccc2c1 [Compound 9, (3-Methyl-4-{2-[2-(2-methyl-5-nitroimidazol-1-yl)ethylsulfanyl]ethylsulfanyl}pyridin-2-ylmethyl)quinolin-3-ylamine] | ≤ 0.1 µg/mL | 152 to 154 °C | – |
| Cc1c(OCCCSCc2ccncc2)ccnc1CNc1cnc2ccccc2c1 [Compound 24, {3-Methyl-4-[3-(pyridin-4-ylmethylsulfanyl)-propoxy]-pyridin-2-ylmethyl}-quinolin-3-yl-amine] | ≤ 0.1 µg/mL | – | – |
| Cc1c(OCCOCCSCc2ccncc2)ccnc1CNc1cnc2ccccc2c1 [Compound 28, (3-Methyl-4-{2-[2-(pyridin-4-ylmethylsulfanyl)-ethoxy]-ethoxy}-pyridin-2-ylmethyl)-quinolin-3-yl-amine] | ≤ 0.1 µg/mL | – | – |
| Cc1c(OCCSCc2ccccn2)ccnc1CNc1cnc2ccccc2c1 [Compound 34, {3-Methyl-4-[2-(pyridin-2-ylmethylsulfanyl)-ethoxy]-pyridin-2-ylmethyl}-quinolin-3-yl-amine] | ≤ 0.1 µg/mL | – | – |
